Laboratory results: US20050032124A1, “Identification of genotype-selective agents for treating Huntington's disease” (priority 2003, published 2005)

How the values were obtained:
[1] = system: BJELR cells (BJ-TERT/LT/ST/RAS^V12) versus BJEH cells (BJ-TERT); assay: Erastin analogs: activity and selectivity in tumor cells versus normal cells; assay type: cell-based, human
Text: Applicants additionally tested 135 analogs of erastin for activity and selectivity in tumor cells versus normal cells. […] This compound was named erastin B (see FIG. 8). […] BJELR cells are BJ-TERT/LT/ST/RAS^V12 cells, and BJEH are BJ-TERT cells.

topoisomerase I (TOPI) = assay: Western blot for TOPI expression; assay type: cell-based, human; conditions: BJ primary cells
Text: (A-C) Western blot of lysates from BJ, BJ-TERT, BJ-TERT/LT/ST, BJ-TERT/LT/ST/RAS^V12, BJ-TERT/LT/RAS^V12 and BJ-TERT/LT/RAS^V12/ST cells with an antibody directed against topoisomerase II (A) or TOPI (B, C). In panel (C), cells were transfected with an siRNA directed against TOPI, lamic A/C or with a control double strand DNA duplex of the same length (TOPI dsDNA). In each case, the blot was probed with an antibody against eIF-4E to identify differences in the amount of protein loaded. The relative amount is quantitated below each band. […] Cell number was determined after transfection with an siRNA directed against TOPI and treatment with the indicated concentrations of camptothecin. (E) Okadaic acid, an inhibitor of PP2A and other cellular phosphatases, sensitizes primary human cells to camptothecin. BJ primary cells were treated simultaneously with the indicated concentrations of both camptothecin and okadaic acid and the effect on calcein AM viability staining was determined. […] BJ primary cells were treated with the indicated concentrations of okadaic acid and the expression level of TOPI was determined by western blot. The relative amount is quantitated below each band. […]

BJ primary cells = assay: Sensitization of primary cells by co-treatment, calcein AM viability staining; assay type: cell-based, human; conditions: for effect on calcein AM viability staining, alone: BJ primary cells
Text: (A-C) Western blot of lysates from BJ, BJ-TERT, BJ-TERT/LT/ST, BJ-TERT/LT/ST/RAS^V12, BJ-TERT/LT/RAS^V12 and BJ-TERT/LT/RAS^V12/ST cells with an antibody directed against topoisomerase II (A) or TOPI (B, C). In panel (C), cells were transfected with an siRNA directed against TOPI, lamic A/C or with a control double strand DNA duplex of the same length (TOPI dsDNA). In each case, the blot was probed with an antibody against eIF-4E to identify differences in the amount of protein loaded. The relative amount is quantitated below each band. […] Cell number was determined after transfection with an siRNA directed against TOPI and treatment with the indicated concentrations of camptothecin. (E) Okadaic acid, an inhibitor of PP2A and other cellular phosphatases, sensitizes primary human cells to camptothecin. BJ primary cells were treated simultaneously with the indicated concentrations of both camptothecin and okadaic acid and the effect on calcein AM viability staining was determined. […] BJ primary cells were treated with the indicated concentrations of okadaic acid and the expression level of TOPI was determined by western blot. The relative amount is quantitated below each band.
The compounds in group (iii) are camptothecin (CPT) and a novel compound from a combinatorial library, which Applicants have named erastin, for eradicator of RAS and ST-expressing cells (FIG. 2). Efficient CPT-induced and erastin-induced cell death requires the presence of both ST and RAS^V12 (FIGS. 3 and 4 and Table 1). Although CPT and erastin have a similar genetic basis of selectivity, they have distinct mechanisms of action. […] The phosphatase inhibitor okadaic acid was capable of sensitizing otherwise resistant BJ primary cells to CPT (FIG. 5E), possibly because okadaic acid upregulates TOPI (FIG. 5F).

[2] = system: PC12 cells expressing Htt-Q103; assay: PC12 Htt-Q103 toxicity assay, Alamar Blue viability; assay type: cell-based, rat; set-up: rescue of Htt-Q103 toxicity: dose or concentration left out as unconfirmed
Text: In the first cell system, Applicants developed, in collaboration with Dr. Erik Schweitzer (UCLA), a high-throughput screen (HTS) for compounds that rescue polyQ-induced apoptosis in immortalized rat neuronal cells (Suhr S T, et al., Proc Natl Acad Sci U S A 1998, 95: 7999-8004). PC12 rat pheochromocytoma cells were transfected with exon-1 of the human huntingtin gene containing either 25 or 103 N-terminal polyQ repeats. For enhanced stability the repeat portion consists of alternating CAG/CAA repeats (FIG. 11A). In addition, the expression construct incorporates enhanced green fluorescent protein (EGFP) as a reporter that enables tracking of the fusion proteins by direct immunofluorescence microscopy or biochemical (immunoprecipitation or Western blotting) detection with anti-EGFP antibodies (Schweitzer E S, et al., submitted). Finally, expression is regulated using the Bombyx mori ecdysone receptor and ecdysone analog, tebufenozide (Suhr S T, et al., Proc Natl Acad Sci U S A 1998, 95: 7999-8004). […]
The high-throughput screen developed by Applicants using the PC12 cell system uses the fluorescent viability dye Alamar Blue™ (FIG. 11B). […] The Z-factor is a commonly used quantitative index for maximal signal separation and minimal variability. […]

[3] = system: BJELR cells (BJ-TERT/LT/ST/RAS^V12); assay: Screen of ACL library for suppressors of erastin activity (calcein AM); assay type: cell-based, human; conditions: 4 μg/ml compound, 5 μg/ml erastin
Procedure: ACL library comprises 1,540 compounds and all compounds were prepared in DMSO at […] in 384-well polypropylene plates and stored at −20° C. Replica daughter plates for each library plate were prepared using Zymark Scilone ALH. The daughter plates were diluted 50 fold in DMEM and compound concentration in the daughter plate is 80 μg/ml with 2% DMSO. In assay plate compound from the daughter plate is diluted 20 fold with cell suspension, thus final concentration of each compound is 4 μg/ml.
BJELR cells were seeded at 6000 cells/well (57μl) (for co-treatment screen) and 5000 cells/well (57 μl) (for pretreatment screen) in 384-well black, clear bottom plates using syringe bulk dispenser. For co-treatment suppressor screen, cells were treated with 3 μl of compound from the daughter plates of ACL library (final concentration in assay plate at 4 μg/ml) and at the same time treated with 5 μg/ml of erastin. Compound transfer was done using 384 fixed cannula head. Plates were incubated for 48 hours at 37° C. in incubator with 5% CO2. For the pretreatment screens, cells were pre-incubated with the compound from ACL daughter library plate for overnight and then treated with 5 μg/ml of erastin for further 48 hours. […] Fluorescence intensity was determined using Fusion platereader with filters centered in an excitation of 485 nm and emission of 535 nm. […]

## erastin B
[1]
  activity and selectivity in tumor cells versus normal cells: active and selective, but less potent than erastin

## C=C1[C@@H](O)[C@@H]2O[C@]3(CC[C@H](/C=C/[C@@H](C)[C@@H]4CC(C)=C[C@@]5(O[C@H](C[C@@](C)(O)C(=O)O)CC[C@H]5O)O4)O3)CC[C@H]2O[C@@H]1[C@@H](O)C[C@H](C)[C@H]1O[C@@]2(CCCCO2)CC[C@H]1C [okadaic acid]
Topoisomerase I (TOPI)
  expression of TOPI (western blot): stimulates expression of TOPI
BJ primary cells; BJ (or BJ-TERT) cells, simultaneous treatment
  sensitization of cells to camptothecin: renders BJ cells sensitive to camptothecin
BJ primary cells; BJ or BJ-TERT cells
  sensitization of cells to erastin: does not render BJ or BJ-TERT cells sensitive to erastin
BJ primary cells; 3.4 nM
  effect on calcein AM viability staining, alone: no effect on its own
BJ primary cells; highest concentrations tested
  effect on calcein AM viability staining, alone: kills BJ cells

## COC(=O)CC(NC(=O)OC(C)(C)C)C(=O)CF [BOC-D-FMK, Boc-Asp(Ome)-fluoromethyl ketone]
[2]; 50 μM, added at the time of tebufenozide induction
  rescue of the Htt-Q103-induced cytotoxicity: ≥ 100%
[2]; 72 hour induction with tebufenozide
  rescue of Htt-Q103 toxicity: rescues Htt-Q103 toxicity

## Cc1c(C)c2c(c(C)c1O)CC[C@@](C)(CCC[C@H](C)CCC[C@H](C)CCCC(C)C)O2 [α-tocopherol]
[3]
  suppression of erastin activity: suppress erastin activity
